Legend:
[1] = target: T1, CK1α (Homo sapiens, UniProt P48729+Q96SW2); experiment: Western blot, degradation of substrate protein in hPBMCs; assay type: cell-based
T1 construct: effects of the compounds of the present disclosure on the expression of target proteins in cells; endogenous in cells; host or cells: human PBMCs (Milecell Biotechnologies)

[2] = target: T2, IKZF1 (Homo sapiens, UniProt Q13422+Q96SW2); experiment: as above; assay type: cell-based
T2 construct: effects of the compounds of the present disclosure on the expression of target proteins in cells; endogenous in cells; host or cells: human PBMCs (Milecell Biotechnologies)
T2 sequence (Q13422 whole entry): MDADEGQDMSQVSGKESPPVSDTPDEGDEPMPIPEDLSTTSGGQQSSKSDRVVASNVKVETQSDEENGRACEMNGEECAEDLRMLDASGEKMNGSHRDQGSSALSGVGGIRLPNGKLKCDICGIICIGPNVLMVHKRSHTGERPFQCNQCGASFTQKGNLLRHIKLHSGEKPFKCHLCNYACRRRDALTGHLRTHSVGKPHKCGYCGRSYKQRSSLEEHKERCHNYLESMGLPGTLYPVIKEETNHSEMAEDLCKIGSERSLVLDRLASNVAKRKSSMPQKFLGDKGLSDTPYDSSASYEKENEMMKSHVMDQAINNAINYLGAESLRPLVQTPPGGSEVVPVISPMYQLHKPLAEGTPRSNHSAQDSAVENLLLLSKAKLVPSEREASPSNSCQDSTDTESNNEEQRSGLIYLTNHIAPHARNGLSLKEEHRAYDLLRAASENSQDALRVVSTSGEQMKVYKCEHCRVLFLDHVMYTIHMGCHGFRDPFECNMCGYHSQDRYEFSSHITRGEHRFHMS
T2 sequence (Q96SW2 whole entry): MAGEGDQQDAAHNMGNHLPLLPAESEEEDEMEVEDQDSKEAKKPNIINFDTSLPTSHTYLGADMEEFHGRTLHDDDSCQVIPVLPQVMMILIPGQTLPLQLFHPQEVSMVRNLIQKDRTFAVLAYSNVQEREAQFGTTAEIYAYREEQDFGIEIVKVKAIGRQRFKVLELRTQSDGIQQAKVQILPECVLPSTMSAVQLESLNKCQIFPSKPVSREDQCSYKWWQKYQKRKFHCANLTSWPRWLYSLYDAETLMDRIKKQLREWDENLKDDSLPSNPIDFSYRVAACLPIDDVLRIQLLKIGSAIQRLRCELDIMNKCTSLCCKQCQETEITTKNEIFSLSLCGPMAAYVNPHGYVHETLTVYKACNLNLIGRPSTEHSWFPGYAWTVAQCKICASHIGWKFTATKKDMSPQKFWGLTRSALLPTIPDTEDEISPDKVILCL
T2 sequence (Q16531 whole entry partner): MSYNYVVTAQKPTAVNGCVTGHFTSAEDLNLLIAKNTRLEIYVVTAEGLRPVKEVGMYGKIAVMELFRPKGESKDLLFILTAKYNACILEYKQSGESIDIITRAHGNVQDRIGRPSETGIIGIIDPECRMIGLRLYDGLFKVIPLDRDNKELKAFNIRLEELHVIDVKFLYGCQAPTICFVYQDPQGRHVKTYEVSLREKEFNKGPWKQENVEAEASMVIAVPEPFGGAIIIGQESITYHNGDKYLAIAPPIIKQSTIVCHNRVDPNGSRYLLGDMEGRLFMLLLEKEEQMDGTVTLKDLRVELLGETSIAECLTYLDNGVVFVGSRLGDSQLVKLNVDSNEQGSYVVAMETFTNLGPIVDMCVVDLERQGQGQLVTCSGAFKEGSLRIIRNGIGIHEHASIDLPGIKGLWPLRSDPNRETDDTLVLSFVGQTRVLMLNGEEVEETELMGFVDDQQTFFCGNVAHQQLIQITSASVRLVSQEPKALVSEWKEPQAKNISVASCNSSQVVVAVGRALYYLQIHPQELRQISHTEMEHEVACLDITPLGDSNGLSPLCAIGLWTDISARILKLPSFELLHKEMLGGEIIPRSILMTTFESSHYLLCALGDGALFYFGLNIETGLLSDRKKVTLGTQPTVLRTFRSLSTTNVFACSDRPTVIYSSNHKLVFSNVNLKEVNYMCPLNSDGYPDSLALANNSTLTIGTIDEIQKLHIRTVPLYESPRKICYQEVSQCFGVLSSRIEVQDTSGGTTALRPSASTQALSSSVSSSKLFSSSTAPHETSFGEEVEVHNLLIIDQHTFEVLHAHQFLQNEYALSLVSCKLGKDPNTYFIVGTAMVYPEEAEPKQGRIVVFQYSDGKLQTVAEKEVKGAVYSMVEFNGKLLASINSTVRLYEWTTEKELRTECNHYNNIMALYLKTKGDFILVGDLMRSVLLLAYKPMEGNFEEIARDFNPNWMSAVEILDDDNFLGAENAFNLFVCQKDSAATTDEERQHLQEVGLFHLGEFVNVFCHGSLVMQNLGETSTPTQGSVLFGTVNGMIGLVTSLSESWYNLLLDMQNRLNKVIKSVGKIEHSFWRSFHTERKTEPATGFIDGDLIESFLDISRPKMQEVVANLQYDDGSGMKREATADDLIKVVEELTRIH

[3] = target: T3, IKZF2 (Homo sapiens, UniProt Q96SW2+Q9UKS7); experiment: as above; assay type: cell-based
T3 construct: effects of the compounds of the present disclosure on the expression of target proteins in cells; endogenous in cells; host or cells: human PBMCs (Milecell Biotechnologies)
T3 sequence (Q9UKS7 whole entry): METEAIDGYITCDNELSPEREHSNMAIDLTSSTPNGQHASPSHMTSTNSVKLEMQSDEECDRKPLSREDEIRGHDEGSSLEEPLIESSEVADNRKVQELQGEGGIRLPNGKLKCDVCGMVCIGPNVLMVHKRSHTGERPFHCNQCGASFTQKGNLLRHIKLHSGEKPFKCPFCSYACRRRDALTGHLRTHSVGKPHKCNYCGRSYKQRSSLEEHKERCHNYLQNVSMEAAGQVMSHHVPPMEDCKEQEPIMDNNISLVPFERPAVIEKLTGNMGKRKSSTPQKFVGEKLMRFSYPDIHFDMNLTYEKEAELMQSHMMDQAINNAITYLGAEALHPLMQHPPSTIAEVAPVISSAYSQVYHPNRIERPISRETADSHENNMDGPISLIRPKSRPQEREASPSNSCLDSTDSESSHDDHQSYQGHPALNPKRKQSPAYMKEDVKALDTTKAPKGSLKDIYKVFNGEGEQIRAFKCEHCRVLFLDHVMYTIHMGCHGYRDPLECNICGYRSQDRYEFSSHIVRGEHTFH
T3 sequence (Q96SW2 whole entry): as the sequence (Q96SW2 whole entry) above
T3 sequence (Q16531 whole entry partner): as the sequence (Q16531 whole entry partner) above

[4] = target: T4, IKZF3 (Homo sapiens, UniProt Q96SW2+Q9UKT9); experiment: as above; assay type: cell-based
T4 construct: effects of the compounds of the present disclosure on the expression of target proteins in cells; endogenous in cells; host or cells: human PBMCs (Milecell Biotechnologies)
T4 sequence (Q9UKT9 whole entry): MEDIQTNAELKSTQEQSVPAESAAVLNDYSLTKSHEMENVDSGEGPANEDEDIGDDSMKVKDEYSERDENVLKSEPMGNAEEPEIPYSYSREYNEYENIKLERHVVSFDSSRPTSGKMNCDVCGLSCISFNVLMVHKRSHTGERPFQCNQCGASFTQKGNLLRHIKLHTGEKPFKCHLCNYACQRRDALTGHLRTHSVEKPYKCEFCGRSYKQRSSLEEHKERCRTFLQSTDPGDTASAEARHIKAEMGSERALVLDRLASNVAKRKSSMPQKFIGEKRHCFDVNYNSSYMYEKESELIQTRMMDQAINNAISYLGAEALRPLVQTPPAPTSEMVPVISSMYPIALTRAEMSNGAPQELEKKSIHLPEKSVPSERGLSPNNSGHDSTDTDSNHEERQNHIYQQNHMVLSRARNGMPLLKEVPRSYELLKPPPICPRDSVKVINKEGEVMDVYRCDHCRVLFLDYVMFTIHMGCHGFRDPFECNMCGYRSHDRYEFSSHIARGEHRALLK
T4 sequence (Q96SW2 whole entry): as the sequence (Q96SW2 whole entry) above
T4 sequence (Q16531 whole entry partner): as the sequence (Q16531 whole entry partner) above

[5] = target: T5, WEE1 (Homo sapiens, UniProt P30291+Q96SW2); experiment: as above; assay type: cell-based
T5 construct: effects of the compounds of the present disclosure on the expression of target proteins in cells; endogenous in cells; host or cells: human PBMCs (Milecell Biotechnologies)
T5 sequence (P30291 whole entry): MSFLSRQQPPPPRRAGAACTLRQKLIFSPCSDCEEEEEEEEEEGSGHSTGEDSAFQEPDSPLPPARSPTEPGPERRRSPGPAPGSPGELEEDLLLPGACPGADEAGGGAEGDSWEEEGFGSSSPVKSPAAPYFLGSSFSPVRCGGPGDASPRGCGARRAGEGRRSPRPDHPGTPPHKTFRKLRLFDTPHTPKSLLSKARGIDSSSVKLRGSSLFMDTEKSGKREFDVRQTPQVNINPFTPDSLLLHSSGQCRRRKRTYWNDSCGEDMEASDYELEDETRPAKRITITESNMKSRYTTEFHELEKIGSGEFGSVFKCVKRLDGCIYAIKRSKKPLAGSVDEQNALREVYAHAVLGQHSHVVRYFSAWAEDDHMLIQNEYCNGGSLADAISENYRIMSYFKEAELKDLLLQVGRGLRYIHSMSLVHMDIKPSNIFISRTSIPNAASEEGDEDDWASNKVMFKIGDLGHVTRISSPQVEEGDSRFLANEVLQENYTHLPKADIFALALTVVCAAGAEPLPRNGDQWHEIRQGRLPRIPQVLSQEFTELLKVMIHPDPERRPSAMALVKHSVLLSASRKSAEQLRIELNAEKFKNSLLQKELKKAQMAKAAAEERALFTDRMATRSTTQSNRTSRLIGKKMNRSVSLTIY
T5 sequence (Q96SW2 whole entry): as the sequence (Q96SW2 whole entry) above
T5 sequence (Q16531 whole entry partner): as the sequence (Q16531 whole entry partner) above

[6] = test system: GSPT1; experiment: as above; assay type: cell-based, Human
[7] = target: T6, human Cereblon WT GST-tagged protein (Homo sapiens, UniProt Q96SW2); experiment: CRBN-binding affinity, HTRF (CEREBLON BINDING kit); conditions: for inhibition at 0.5 µM: read-out: Inhibition Rate at 0.5 µM (%); for inhibition at 2 µM: read-out: Inhibition Rate at 2 µM (%)
T6 construct: purchased CISBIO 64BDCRBNPEH
T6 sequence (Q96SW2 whole entry): as the sequence (Q96SW2 whole entry) above

[8] = 24 hours treatment, compounds at 50 nM and 500 nM (concentration behind the class not stated)
[9] = Western blot, 24 hours of compound treatment, compounds tested at 50 nM and 500 nM (concentration for the table not stated)

T1 sequence (P48729 whole entry): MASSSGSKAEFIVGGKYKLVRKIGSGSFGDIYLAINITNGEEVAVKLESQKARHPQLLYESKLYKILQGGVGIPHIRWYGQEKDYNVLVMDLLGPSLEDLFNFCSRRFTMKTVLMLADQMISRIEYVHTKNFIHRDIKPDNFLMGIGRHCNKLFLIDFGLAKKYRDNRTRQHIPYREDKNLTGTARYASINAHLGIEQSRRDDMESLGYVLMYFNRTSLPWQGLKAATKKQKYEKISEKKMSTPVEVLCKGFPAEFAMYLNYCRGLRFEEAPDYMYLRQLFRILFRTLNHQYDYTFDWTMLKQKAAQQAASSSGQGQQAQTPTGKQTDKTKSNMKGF
T1 sequence (Q96SW2 whole entry): as the sequence (Q96SW2 whole entry) above
T1 sequence (Q16531 whole entry partner): as the sequence (Q16531 whole entry partner) above

For `Cc1cscc1C1=CCN(Cc2cccc3c2CN(C2CCC(=O)NC2=O)C3=S)CC1` (stereo not drawn) [GT-08308, 3-(4-((4-(4-methylthiophen-3-yl)-3,6-dihydropyridin-1(2H)-yl)methyl)-1-thioxoisoindolin-2-yl)piperidine-2,6-dione], the “CK1α substrate protein remaining %” value [1, 8] was “B (80%< substrate protein remaining %≤ 100%)”, the “IKZF 1 substrate protein remaining %” value [2, 8] was “B (80%< substrate protein remaining %≤ 100%)” and the “IKZF2 substrate protein remaining %” value [3, 8] was “B (80%< substrate protein remaining %≤ 100%)”. For the same molecule, the “IKZF3 substrate protein remaining %” value [4, 8] was “B (80%< substrate protein remaining %≤ 100%)”, the “Wee1 substrate protein remaining %” value [5, 8] was “A (0% ≤ substrate protein remaining % ≤ 80%)” and the “GSPT1 substrate protein remaining %” value [6, 8] was “B (80%< substrate protein remaining %≤ 100%)”. It also gave an inhibition at 0.5 µM [7] of 53 to 60% and an inhibition at 2 µM [7] of 60 to 80%.
In the case of `O=C1CCC(N2Cc3c(CN4CCN(c5noc6ccncc56)CC4)cccc3C2=S)C(=O)N1` (stereo not drawn) [GT-08838, 3-(4-((4-(isoxazolo[4,5-c]pyridin-3-yl)piperazin-1-yl)methyl)-1-thioxoisoindolin-2-yl)piperidine-2,6-dione], the “CK1α substrate protein remaining %” value [1, 9] is reported as “B (80%< substrate protein remaining %≤ 100%)”, the “IKZF 1 substrate protein remaining %” value [2, 9] is reported as “B (80%< substrate protein remaining %≤ 100%)” and the “IKZF2 substrate protein remaining %” value [3, 9] is reported as “B (80%< substrate protein remaining %≤ 100%)”. The “IKZF3 substrate protein remaining %” value [4, 9] was “B (80%< substrate protein remaining %≤ 100%)”, the “Wee1 substrate protein remaining %” value [5, 9] was “A (0% ≤ substrate protein remaining % ≤ 80%)” and the “GSPT1 substrate protein remaining %” value [6, 9] was “A (0% ≤ substrate protein remaining % ≤ 80%)”. The inhibition at 0.5 µM [7] was 53 to 60% and the inhibition at 2 µM [7] was 80 to 100%.
For `O=C1CCC(N2Cc3c(CN4CCN(c5cnnc(Cl)c5Cl)CC4)cccc3C2=S)C(=O)N1` (stereo not drawn) [GT-08815, 3-(4-((4-(5,6-dichloropyridazin-4-yl)piperazin-1-yl)methyl)-1-thioxoisoindolin-2-yl)piperidine-2,6-dione], the “CK1α substrate protein remaining %” value [1, 9] was “B (80%< substrate protein remaining %≤ 100%)”, the “IKZF 1 substrate protein remaining %” value [2, 9] was “B (80%< substrate protein remaining %≤ 100%)” and the “IKZF2 substrate protein remaining %” value [3, 9] was “B (80%< substrate protein remaining %≤ 100%)”. The “IKZF3 substrate protein remaining %” value [4, 9] was “B (80%< substrate protein remaining %≤ 100%)”, the “Wee1 substrate protein remaining %” value [5, 9] was “A (0% ≤ substrate protein remaining % ≤ 80%)” and the “GSPT1 substrate protein remaining %” value [6, 9] was “B (80%< substrate protein remaining %≤ 100%)”. It also gave an inhibition at 0.5 µM [7] of 60 to 80% and an inhibition at 2 µM [7] of 80 to 100%.
With `O=C1CCC(N2Cc3c(CN4CCN(c5ccsc5)CC4)cccc3C2=S)C(=O)N1` (stereo not drawn) [GT-08313, 3-(4-((4-(thiophen-3-yl)piperazin-1-yl)methyl)-1-thioxoisoindolin-2-yl)piperidine-2,6-dione] the “CK1α substrate protein remaining %” value [1, 8] was “B (80%< substrate protein remaining %≤ 100%)”, the “IKZF 1 substrate protein remaining %” value [2, 8] was “B (80%< substrate protein remaining %≤ 100%)” and the “IKZF2 substrate protein remaining %” value [3, 8] was “A (0% ≤ substrate protein remaining % ≤ 80%)”. The “IKZF3 substrate protein remaining %” value [4, 8] was “B (80%< substrate protein remaining %≤ 100%)”, the “Wee1 substrate protein remaining %” value [5, 8] was “A (0% ≤ substrate protein remaining % ≤ 80%)” and the “GSPT1 substrate protein remaining %” value [6, 8] was “B (80%< substrate protein remaining %≤ 100%)”. For the same molecule, the inhibition at 0.5 µM [7] was 40 to 53% and the inhibition at 2 µM [7] was 60 to 80%.
For `Cc1nc(N2CCN(Cc3cccc4c3CN(C3CCC(=O)NC3=O)C4=S)CC2)c2ccsc2n1` (stereo not drawn) [GT-08922, 3-(4-((4-(2-methylthieno[2,3-d]pyrimidin-4-yl)piperazin-1-yl)methyl)-1-thioxoisoindolin-2-yl)piperidine-2,6-dione], the “CK1α substrate protein remaining %” value [1, 8] was “B (80%< substrate protein remaining %≤ 100%)”, the “IKZF 1 substrate protein remaining %” value [2, 8] was “B (80%< substrate protein remaining %≤ 100%)” and the “IKZF2 substrate protein remaining %” value [3, 8] was “B (80%< substrate protein remaining %≤ 100%)”. The “IKZF3 substrate protein remaining %” value [4, 8] was “B (80%< substrate protein remaining %≤ 100%)”, the “Wee1 substrate protein remaining %” value [5, 8] was “A (0% ≤ substrate protein remaining % ≤ 80%)” and the “GSPT1 substrate protein remaining %” value [6, 8] was “B (80%< substrate protein remaining %≤ 100%)”. It also gave an inhibition at 0.5 µM [7] of 60 to 80% and an inhibition at 2 µM [7] of 80 to 100%.
In the case of `O=C1CCC(N2Cc3cc(CN4CCC(c5ncnc6scc(-c7ccccc7)c56)CC4)ccc3C2=S)C(=O)N1` (stereo not drawn) [GT-09307, 3-(5-((4-(5-phenylthieno[2,3-d]pyrimidin-4-yl)piperidin-1-yl)methyl)-1-thioxoisoindolin-2-yl)piperidine-2,6-dione], the “CK1α substrate protein remaining %” value [1, 8] is reported as “A (0% ≤ substrate protein remaining % ≤ 80%)”, the “IKZF 1 substrate protein remaining %” value [2, 8] is reported as “A (0% ≤ substrate protein remaining % ≤ 80%)” and the “IKZF2 substrate protein remaining %” value [3, 8] is reported as “B (80%< substrate protein remaining %≤ 100%)”. The “IKZF3 substrate protein remaining %” value [4, 8] was “A (0% ≤ substrate protein remaining % ≤ 80%)”, the “Wee1 substrate protein remaining %” value [5, 8] was “A (0% ≤ substrate protein remaining % ≤ 80%)” and the “GSPT1 substrate protein remaining %” value [6, 8] was “A (0% ≤ substrate protein remaining % ≤ 80%)”. For the same molecule, the inhibition at 0.5 µM [7] was 60 to 80% and the inhibition at 2 µM [7] was 80 to 100%.
With `O=C1CCC(N2Cc3c(CN4CCC(c5cccc6cnccc56)CC4)cccc3C2=S)C(=O)N1` (stereo not drawn) [GT-08857, 3-(4-((4-(isoquinolin-5-yl)piperidin-1-yl)methyl)-1-thioxoisoindolin-2-yl)piperidine-2,6-dione] the “CK1α substrate protein remaining %” value [1, 8] was “B (80%< substrate protein remaining %≤ 100%)”, the “IKZF 1 substrate protein remaining %” value [2, 8] was “B (80%< substrate protein remaining %≤ 100%)” and the “IKZF2 substrate protein remaining %” value [3, 8] was “B (80%< substrate protein remaining %≤ 100%)”. For the same molecule, the “IKZF3 substrate protein remaining %” value [4, 8] was “A (0% ≤ substrate protein remaining % ≤ 80%)”, the “Wee1 substrate protein remaining %” value [5, 8] was “A (0% ≤ substrate protein remaining % ≤ 80%)” and the “GSPT1 substrate protein remaining %” value [6, 8] was “B (80%< substrate protein remaining %≤ 100%)”. The inhibition at 0.5 µM [7] was 60 to 80% and the inhibition at 2 µM [7] was 80 to 100%.
In the case of `O=C1CCC(N2Cc3cc(CN4CCN(C(c5cccnc5)c5cccnc5)CC4)ccc3C2=S)C(=O)N1` (stereo not drawn) [GT-07735, 3-(5-((4-(di(pyridin-3-yl)methyl)piperazin-1-yl)methyl)-1-thioxoisoindolin-2-yl)piperidine-2,6-dione], the “CK1α substrate protein remaining %” value [1, 9] is reported as “B (80%< substrate protein remaining %≤ 100%)”, the “IKZF 1 substrate protein remaining %” value [2, 9] is reported as “B (80%< substrate protein remaining %≤ 100%)” and the “IKZF2 substrate protein remaining %” value [3, 9] is reported as “B (80%< substrate protein remaining %≤ 100%)”. For the same molecule, the “IKZF3 substrate protein remaining %” value [4, 9] was “A (0% ≤ substrate protein remaining % ≤ 80%)”, the “Wee1 substrate protein remaining %” value [5, 9] was “A (0% ≤ substrate protein remaining % ≤ 80%)” and the “GSPT1 substrate protein remaining %” value [6, 9] was “A (0% ≤ substrate protein remaining % ≤ 80%)”. For the same molecule, the inhibition at 0.5 µM [7] was 53 to 60% and the inhibition at 2 µM [7] was 80 to 100%.
For `O=C1CCC(N2Cc3c(CN4CCc5sccc5C4)cccc3C2=S)C(=O)N1` (stereo not drawn) [GT-08333, 3-(4-((6,7-dihydrothieno[3,2-c]pyridin-5(4H)-yl)methyl)-1-thioxoisoindolin-2-yl)piperidine-2,6-dione], the “CK1α substrate protein remaining %” value [1, 8] was “A (0% ≤ substrate protein remaining % ≤ 80%)”, the “IKZF 1 substrate protein remaining %” value [2, 8] was “B (80%< substrate protein remaining %≤ 100%)” and the “IKZF2 substrate protein remaining %” value [3, 8] was “B (80%< substrate protein remaining %≤ 100%)”. The “IKZF3 substrate protein remaining %” value [4, 8] was “B (80%< substrate protein remaining %≤ 100%)”, the “Wee1 substrate protein remaining %” value [5, 8] was “A (0% ≤ substrate protein remaining % ≤ 80%)” and the “GSPT1 substrate protein remaining %” value [6, 8] was “A (0% ≤ substrate protein remaining % ≤ 80%)”. The inhibition at 0.5 µM [7] was 60 to 80% and the inhibition at 2 µM [7] was 80 to 100%.
For `O=C1CCC(N2Cc3cc(CN4CCC(n5c(=O)[nH]c6cc(F)ccc65)CC4)ccc3C2=S)C(=O)N1` (stereo not drawn) [GT-09263, 3-(5-((4-(5-fluoro-2-oxo-2,3-dihydro-1H-benzo[d]imidazol-1-yl)piperidin-1-yl)methyl)-1-thioxoisoindolin-2-yl)piperidine-2,6-dione], the “CK1α substrate protein remaining %” value [1, 8] was “B (80%< substrate protein remaining %≤ 100%)”, the “IKZF 1 substrate protein remaining %” value [2, 8] was “B (80%< substrate protein remaining %≤ 100%)” and the “IKZF2 substrate protein remaining %” value [3, 8] was “B (80%< substrate protein remaining %≤ 100%)”. The “IKZF3 substrate protein remaining %” value [4, 8] was “B (80%< substrate protein remaining %≤ 100%)”, the “Wee1 substrate protein remaining %” value [5, 8] was “B (80%< substrate protein remaining %≤ 100%)” and the “GSPT1 substrate protein remaining %” value [6, 8] was “A (0% ≤ substrate protein remaining % ≤ 80%)”. For the same molecule, the inhibition at 0.5 µM [7] was 60 to 80% and the inhibition at 2 µM [7] was 80 to 100%.
With `Cc1cc(N2CCN(Cc3cccc4c3CN(C3CCC(=O)NC3=O)C4=S)CC2)cc(C)n1` (stereo not drawn) [GT-08806, 3-(4-((4-(2,6-dimethylpyridin-4-yl)piperazin-1-yl)methyl)-1-thioxoisoindolin-2-yl)piperidine-2,6-dione] the “CK1α substrate protein remaining %” value [1, 9] was “B (80%< substrate protein remaining %≤ 100%)”, the “IKZF 1 substrate protein remaining %” value [2, 9] was “B (80%< substrate protein remaining %≤ 100%)” and the “IKZF2 substrate protein remaining %” value [3, 9] was “B (80%< substrate protein remaining %≤ 100%)”. The “IKZF3 substrate protein remaining %” value [4, 9] was “B (80%< substrate protein remaining %≤ 100%)”, the “Wee1 substrate protein remaining %” value [5, 9] was “A (0% ≤ substrate protein remaining % ≤ 80%)” and the “GSPT1 substrate protein remaining %” value [6, 9] was “B (80%< substrate protein remaining %≤ 100%)”. The inhibition at 0.5 µM [7] was 53 to 60% and the inhibition at 2 µM [7] was 80 to 100%.
With `O=C1CCC(N2Cc3c(CN4CCN(c5ncncn5)CC4)cccc3C2=S)C(=O)N1` (stereo not drawn) [GT-08808, 3-(4-((4-(1,3,5-triazin-2-yl)piperazin-1-yl)methyl)-1-thioxoisoindolin-2-yl)piperidine-2,6-dione] the “CK1α substrate protein remaining %” value [1, 9] was “B (80%< substrate protein remaining %≤ 100%)”, the “IKZF 1 substrate protein remaining %” value [2, 9] was “B (80%< substrate protein remaining %≤ 100%)” and the “IKZF2 substrate protein remaining %” value [3, 9] was “B (80%< substrate protein remaining %≤ 100%)”. The “IKZF3 substrate protein remaining %” value [4, 9] was “B (80%< substrate protein remaining %≤ 100%)”, the “Wee1 substrate protein remaining %” value [5, 9] was “A (0% ≤ substrate protein remaining % ≤ 80%)” and the “GSPT1 substrate protein remaining %” value [6, 9] was “B (80%< substrate protein remaining %≤ 100%)”. The inhibition at 0.5 µM [7] was 60 to 80% and the inhibition at 2 µM [7] was 80 to 100%.
